# Source: US8609644B2, “Amino derivatives of androstanes and androstenes as medicaments for cardiovascular disorders” (priority 2006, dated 2013)
# Where a name gives a salt, the structure may show the parent alone. Read-outs that look alike come from different tables or passages of the source.
# How the values were obtained:
# Na+, K+-ATPase = Na+, K+-ATPase (Canis lupus familiaris, UniProt P50997); assay: biochemical; parameters: species or system dog
# fresh rat hepatocytes = assay: Metabolism in fresh rat hepatocytes; settings: for % of compound metabolized after 60 minutes: fresh rat hepatocytes, test item nominal concentration 45 μM
# anesthetized guinea-pig = assay: Inotropic effect and lethal dose, slow intravenous infusion (over 90 minutes) in anesthetized guinea-pig; settings: for ED80 / ED (max) / Emax: Cavia porcellus, iv, 1.5 h; for ED80: read-out: ED80 (inotropic potency, dose increasing +dP/dTmax by 80%); for ED (max): read-out: EDmax (dose inducing maximum positive inotropic effect); for Emax: read-out: Emax % increase in +dP/dTmax; for Lethal dose/ED80 (safety ratio): calculated in the died animals; for Maximum dose infused: maximum dose infused in the survived animals; for Dead/treated / Emax % increase in +dP/dTmax / ED80 (inotropic potency, dose increasing +dP/dTmax by 80%) / EDmax (dose inducing maximum positive inotropic effect): slow i.v. infusion over 90 minutes; for % decrease from Emax after 20 min from the end of the infusion: duration of the inotropic effect; for Emax % increase in +dP/dTmax: maximum increase in contractile force
# [1] = dog kidney enzyme, read-out: Na+, K+-ATPase Inhibition IC50
# [2] = read-out: Na+, K+-ATPase Inhibition IC50
SMILES,"IC50 (Na+, K+-ATPase; [1])",% of compound metabolized after 60 minutes (fresh rat hepatocytes),ED80 (anesthetized guinea-pig),ED (max) (anesthetized guinea-pig),Emax (anesthetized guinea-pig),Maximum dose infused (anesthetized guinea-pig),Dead/treated (anesthetized guinea-pig),"IC50 (Na+, K+-ATPase; Na+, K+-ATPase Inhibition IC50)",% decrease from Emax after 20 min from the end of the infusion (anesthetized guinea-pig),other results
"CC12CCC3C(C(O)C(CO)C4CC(=NOCCN)CCC43C)C1CCC2=O (mixture of isomers) [I-ej, (E,Z) 3-(2-Aminoethoxyimino)-6α-hydroxymethyl-7α-hydroxyandrostane-17-one hydrochloride]",22 nM,5%,0.34 µmol/kg,7.55 µmol/kg,258%,25.0 µmol/kg,3/3,,,Lethal dose/ED80 (safety ratio) (anesthetized guinea-pig): 50
"CNCCCON=C1CCC2(C)C(C1)C(NC=O)CC1C3CCC(=O)C3(C)CCC12 (mixture of isomers) [I-co, (E,Z) 3-(3-N-Methylaminopropoxyimino)-6α-formamidoandrostan-17-one hydrochloride]",1100 nM,,0.93 µmol/kg,2.79 µmol/kg,177%,44.1 µmol/kg,2/2,,,Lethal dose/ED80 (safety ratio) (anesthetized guinea-pig): 47.4
"C[C@]12CC[C@H]3[C@@H](CC[C@@]4(O)C[C@H](/C=C\CCCN)CC[C@]34C)[C@@H]1CCC2=O [I-dk, 3α-(5-Aminopent-1-(Z)-enyl)-5α-hydroxyandrostane-17-one fumarate]",690 nM,12%,,,,,,,,
"C[C@]12CC[C@H]3[C@@H](CC[C@@]4(O)CC(=NOCCN)CC[C@]34C)[C@@H]1CCC2=O (mixture of isomers) [I-ad, (E,Z) 3-(2-Aminoethoxyimino)-5α-hydroxyandrostan-17-one fumarate]",,,5.14 µmol/kg,22.5 µmol/kg,202%,50.1 µmol/kg,0/3,540 nM,100%,
"CO/N=C1\C[C@H]2[C@@H]3CCC(=O)[C@@]3(C)CC[C@@H]2[C@@]2(C)CCC(=NOCCN)C[C@]12O (mixture of isomers) [I-bp, (E,Z)-3-(2-Aminoethoxyimino)-5α-hydroxy-6-(E)-methoxyiminoandrostane-17-one fumarate]",,32%,,,,,,40 nM,,
"CC12CCC3C(C(=O)CC4CC(=NOCCN)CCC43C)C1CCC2=O (mixture of isomers) [I-br, (E,Z) 3-(2-Aminoethoxyimino)androstane-7,17-dione fumarate]",,,1.62 µmol/kg,13.5 µmol/kg,264%,50.4 µmol/kg,2/5,210 nM,100%,Lethal dose/ED80 (safety ratio) (anesthetized guinea-pig): 32.4
"CNCCCON=C1CC[C@@]2(C)[C@H](C1)[C@@H](CO)C[C@@H]1[C@@H]2CC[C@]2(C)C(=O)CC[C@@H]12 (mixture of isomers) [I-cl, (E,Z) 3-(3-N-Methylaminopropoxyimino)-6α-hydroxymethylandrostan-17-one hydrochloride]",690 nM,,1.54 µmol/kg,8.95 µmol/kg,263%,42.5 µmol/kg,2/2,,,Lethal dose/ED80 (safety ratio) (anesthetized guinea-pig): 27.6
"CC12CCC3C(C(=NO)CC4CC(=NOCCN)CCC43C)C1CCC2=O (mixture of isomers) [I-bs, (E,Z)-3-(2-Aminoethoxyimino)-7-(E)-hydroxyiminoandrostane-17-one fumarate]",,15%,,,,,,,,
"C[C@]12CC[C@@H](/C=C\CCCN)CC1/C(=N/O)C[C@@H]1[C@@H]2CC[C@]2(C)C(=O)CC[C@@H]12.O=C(O)/C=C/C(=O)O (stereo partly drawn) [I-dg, 3α-(5-Aminopent-1-(Z)-enyl)-6-(E)-hydroxyiminoandrostan-17-one fumarate]",,,,,,12.9 µmol/kg,0/3,,29%,"IC50 (Na+, K+-ATPase; [2]): 390 nM; Emax % increase in +dP/dTmax (anesthetized guinea-pig): 105%; ED80 (inotropic potency, dose increasing +dP/dTmax by 80%) (anesthetized guinea-pig): 8.62 µmol/kg; EDmax (dose inducing maximum positive inotropic effect) (anesthetized guinea-pig): 11.4 µmol/kg"
"C=C1C[C@H]2[C@@H]3CCC(=O)[C@@]3(C)CC[C@@H]2[C@@]2(C)CCC(=NOCCN)C[C@]12O (mixture of isomers) [I-bq, (E,Z) 3-(2-Aminoethoxyimino)-5α-hydroxy-6-methylenandrostane-17-one hydrochloride]",,,5.87 µmol/kg,15.7 µmol/kg,173%,25.3 µmol/kg,0/3,99 nM,10%,
"C#C[C@H]1C[C@@H]2[C@H](CC[C@]3(C)C(=O)CC[C@@H]23)[C@@]2(C)CCC(=NOCCN)C[C@H]12 (mixture of isomers) [I-bd, (E,Z) 3-(2-Aminoethoxyimino)-6α-ethynylandrostan-17-one hydrochloride]",,,4.59 µmol/kg,9.89 µmol/kg,163%,12.8 µmol/kg,0/3,200 nM,16%,
"CON=C1CC2C3CCC(=O)C3(C)CCC2C2(C)CCC(=NOCCN)CC12 (mixture of isomers) [I-aw, (E,Z)-3-(2-Aminoethoxyimino)-6-(E)-methoxyiminoandrostan-17-one hydrochloride]",17 nM,,2.35 µmol/kg,5.77 µmol/kg,183%,12.7 µmol/kg,0/5,,100%,
"CC12CCC3C(CC(CCO)C4CC(=NOCCN)CCC43C)C1CCC2=O (mixture of isomers) [I-am, (E,Z) 3-(2-Aminoethoxyimino)-6α-(2-hydroxyethyl)androstan-17-one hydrochloride]",320 nM,,2.5 µmol/kg,17.2 µmol/kg,238%,50.5 µmol/kg,2/3,,17%,Lethal dose/ED80 (safety ratio) (anesthetized guinea-pig): 22.7
"C[C@]12CC[C@H](OC(=O)CCN)CC1/C(=N/O)C[C@@H]1[C@@H]2CC[C@]2(C)C(=O)CC[C@@H]12.Cl (stereo partly drawn) [I-dm, 3β-(3-Aminopropionyloxy)-6-(E)-hydroxyiminoandrostan-17-one hydrochloride]",,71%,,,,,,,,
"C[C@]12CC[C@H]3[C@@H](C/C(=N\O)[C@@]4(O)CC(=NOCCN)CC[C@]34C)[C@@H]1CCC2=O.O=C(O)/C=C/C(=O)O [I-bo, (E,Z)-3-(2-Aminoethoxyimino)-5α-hydroxy-6-(E)-hydroxyiminoandrostane-17-one fumarate]",,,,,,12.5 µmol/kg,0/3,,82%,"IC50 (Na+, K+-ATPase; [2]): 79 nM; Emax % increase in +dP/dTmax (anesthetized guinea-pig): 214%; ED80 (inotropic potency, dose increasing +dP/dTmax by 80%) (anesthetized guinea-pig): 1.30 µmol/kg; EDmax (dose inducing maximum positive inotropic effect) (anesthetized guinea-pig): 4.86 µmol/kg"
"C[C@]12CC[C@@H](/C=C\CCCCN)CC1/C(=N/O)C[C@@H]1[C@@H]2CC[C@]2(C)C(=O)CC[C@@H]12 (stereo partly drawn) [I-dj, 3α-(6-Aminohex-1-(Z)-enyl)-6-(E)-hydroxyiminoandrostan-17-one fumarate]",,,,,,,,,,"IC50 (Na+, K+-ATPase; [2]): 1300 nM"
"CNCCCON=C1CC[C@@]2(C)C(C1)C(=NOC)C[C@@H]1[C@@H]2CC[C@]2(C)C(=O)CC[C@@H]12.Cl (stereo partly drawn) [I-ci, (E,Z) 3-(3-N-Methylaminopropoxyimino)-6-(E)-methoxyiminoandrostan-17-one hydrochloride]",,41%,,,,,,,,"IC50 (Na+, K+-ATPase; [2]): 330 nM"
"CC1CC2C3CCC(=O)C3(C)CCC2C2(C)CCC(=NOCCN)CC12 (single isomer, unassigned) [I-ba, (E,Z) 3-(2-Aminoethoxyimino)-6α-methylandrostan-17-one hydrochloride]",,,3.09 µmol/kg,5.78 µmol/kg,203%,6.3 µmol/kg,0/3,300 nM,100%,
"C=CC1CC2C3CCC(=O)C3(C)CCC2C2(C)CCC(=NOCCN)CC12 (stereo not drawn) [I-al, (E,Z) 3-(2-Aminoethoxyimino)-6α-vinylandrostan-17-one hydrochloride]",,,,,,,,530 nM,,
"CC12CCC3C(CC(CO)C4CC(=NOCCN)CCC43C)C1CCC2=O (single isomer, unassigned) [I-ao, (E,Z) 3-(2-Aminoethoxyimino)-6α-hydroxymethylandrostan-17-one hydrochloride]",180 nM,,1.8 µmol/kg,7.37 µmol/kg,166%,12.6 µmol/kg,0/3,,100%,
"C[C@]12CCC(=NOCCN)CC1C(=O)C[C@@H]1[C@@H]2CC[C@]2(C)C(=O)CC[C@@H]12.Cl (mixture of isomers) [compd 22b, (EZ) 3-(2-aminoethoxyimino)androstane-6,17-dione hydrochloride, reference compound]",,95%,1.82 µmol/kg,5.74 µmol/kg,182%,32.1 µmol/kg,7/8,,100%,metabolism in fresh rat hepatocytes (in words) (fresh rat hepatocytes; within 60 minutes): almost completely metabolized; Lethal dose/ED80 (safety ratio) (anesthetized guinea-pig): 22.6
"C[C@]12CC[C@H](/C=C\CCN)CC1/C(=N/O)C[C@@H]1[C@@H]2CC[C@]2(C)C(=O)CC[C@@H]12 (stereo partly drawn) [I-de, 3β-(4-Aminobut-1-(Z)-enyl)-6-(E)-hydroxyiminoandrostane-17-one fumarate]",,,,,,,,,,"IC50 (Na+, K+-ATPase; [2]): 1200 nM"
